Assay results: patent publication US20250073014A1, “METHODS, DEVICES AND SYSTEMS FOR TREATING NEOINTIMAL GROWTH” (priority 2022, published 2025)
Where two headings read alike, the source gives them in different places. Blank lines part the entries; values can stand above or below the compound they belong to.

Assays:
[1] = Stability and solubility of rapamycin in DMSO and DMSO/saline; format: physicochemical; conditions: in DMSO at −20° C.
From the text: The rapamycin solution in DMSO could be further diluted either in saline, PBS, or distilled water.
The best working solution is considered to be 50/50 DMSO/water i.e., 50% of the DMSO in solution. This could be envisioned valid if instead of saline blood is used.

[2] = Rapamycin delivery in isolated porcine carotid artery (LC-MS/MS of tissue and washings); format: in vitro ADME
Protocol: Sirolimus/Rapamycin was analyzed using an LC-MS/MS system consisting of an Agilent 1290 (San Jose, CA, USA) coupled to electrospray ionization on a triple quadrupole mass spectrometer (Agilent 6460, San Jose, CA, USA) equipped with a turbo ion spray interface in negative ionization mode, and an Agilent LC 1200 Binary pump system (Agilent Technologies, Santa Clara, CA, USA). Ascomycin was used as an internal standard (IS). A Gemini 5 μm NX-C18 110 Å, LC Column polar-RP 80A column (50×2 mm, Phenomenex, Torrance, CA, USA) equipped with a Security Guard™ column (4.0 mm×3.0 mm) was utilized to optimally separate sirolimus and the internal standard from endogenous substances of porcine carotid artery. The mobile phase was a mixture of 20 mM ammonium acetate (A) and methanol (B). Sample separation was conducted using a flow rate of 0.2 mL/min and a 10-min gradient condition (0-1 min: 20% B, 1-6 min: 100% B, 6-7 min: 100% B, 7.1-10 min: 20% B). The injection volume was […] for calibration and carotid artery samples. The selected reaction monitoring transitions of m/z 912.5→371.2 and m/z 790.5→530.3 were applied for sirolimus and IS, respectively. Mass data were acquired using Analyst software version 1.5.2 (Applied Biosystems-SCIEX, Concord, ON, Canada). Data analysis was processed using SCIEX OS offline software version 1.6 (Applied Biosystems-SCIEX, Concord, ON, Canada).
Sirolimus/Rapamycin was dissolved in acetonitrile to prepare a stock solution (1 mg/mL) and including IS with 2 ng/μL and were gradually diluted by the serial dilution method using calibrated pipettes (2-20 μL, 10-100 μL and 100-1000 μL), in order to obtain working stock dilutions at decreasing concentrations ([…]). These solutions were used for the preparation of mass spectrometry optimization, calibration curve and quality control standards in DMSO and carotid artery homogenates. These stock solutions and stock dilutions were stored at −20° C., respectively.
Sirolimus/Rapamycin was dissolved in DMSO to prepare a final concentration of 100 mg/mL (stock solution) and stored at −80° C. The porcine carotid arteries were washed 5 times in PBS (1×) to remove all the blood and fluids, followed by cutting them into 40 mm length. The surface area (SA) of the artery was calculated to be 628 mm^2 (lateral SAcylinder=2πrh; π=3.14, r=2.5 mm, and h=40 mm). The Rapamycin solution was diluted in DMSO to prepare […] (2 μg/mm^2). One of the carotid arteries was tied at one end and then it was filled with 0.5 mL of Rapamycin solution ([Rapamycin]0=628 μg/mL) then the open end was tied. After a 5-minute treatment, the solution was drained out, then arteries were washed with 5×0.2 mL of PBS (1×) which was also collected for the analysis. A similar experiment was performed as a biological duplicate. The arteries and the washings were then analyzed for the presence of Sirolimus/Rapamycin for determining the amount that was absorbed by the tissues compared to the amount that was washed out for use as a model.
Treated and untreated porcine carotid artery segments (100 mg, 2 mm) were shredded in methanol with a surgical blade and transferred to a 2 ml tube with a total volume of 1 ml methanol and 100 μL of internal standard (1 ng/ml). This tube contained garnet beads/shards for homogenizing tissue. Then a Qiagen Tissue Lyser LT was used to beat the artery shreds at 50 Hz for 10 minutes. The supernatant was dried down completely under a gentle stream of nitrogen using a nitrogen evaporator. The samples were resuspended in 100 μL of DMSO and placed in inserted universal autosampler vials prior to analysis.

[3] = test system: cholesterol-induced atherosclerosis; conditions: cited from earlier work
[4] = design: species or system Yorkshire swine; conditions: female, Yorkshire, pig, in vivo
Protocol: Formulations: Two Different Formulations were Prepared: • 1. […] Sirolimus was encapsulated in gelatin nanoparticles (GNP).
An incision of 5-8 cm was made alongside the femoral (or carotid) artery, and surrounding muscle and perivascular fascia were bluntly dissected to expose the artery.
The HPLC facility isolated the paclitaxel in usual manner and sirolimus was isolated with an addition step of enzymatic digesting of the GNP with trypsin at 37° C. before the analysis of each of them by Liquid Chromatography with tandem mass spectrometry (LC-MS-MS). • 1. Paclitaxel on day 1 in both the arteries with the final concentration of 12 ng/g in the first artery and 5.2 ng/g in second artery was detected by LC-MS/MS. The solution that was evacuated after 5 min of the formulation in the test site was evaluated by LC-MS/MS to detect 15% (75 mg) of the initial concentration of injected paclitaxel solution. […] Only few nanograms were detected in 24 h and that could indicate that probably 100% DMSO as a carrier took away the paclitaxel from the site to other region of the leg muscles that were not evaluated.

Stability of rapamycin in DMSO [1]: many months | % of total drug in 2 mm of artery ([2]; 5-minute treatment, rapamycin in DMSO): 30.13% | % of total drug in washings (40 mm of artery) ([2]; PBS washings after 5-minute treatment): 0.5% | Delivery efficiency ([2]; Total Dose 220 ug): 99.55% | Lost in Blood stream (washed out) ([2]; Total Dose 220 ug): 1 µg | Remaining in tissue ([2]; Total Dose 220 ug): 68.75 µg | Remaining in tissue, % of the dose ([2]; Total Dose 220 ug): 30.13 % of the dose
Structure (SMILES): CO[C@H]1C[C@@H]2CC[C@@H](C)[C@@](O)(O2)C(=O)C(=O)N2CCCC[C@H]2C(=O)O[C@H]([C@H](C)C[C@@H]2CC[C@@H](O)[C@H](OC)C2)CC(=O)[C@H](C)/C=C(\C)[C@@H](O)[C@@H](OC)C(=O)[C@H](C)C[C@H](C)/C=C/C=C/C=C/1C [Rapamycin]

Structure (SMILES): C[S+](C)[O-] [DMSO, dimethyl sulfoxide]
Food intake of rabbits on the atherogenic diet [3]: not suppressed | Inhibition of aortic lesions ([3]; rabbits on atherogenic diet, 2% (dose, 1.5 g/kg) DMSO): about 50% | Aortic lesions ([3]; rabbits on atherogenic diet, 4 (3.5 g/kg), 5 (5.5 g/kg) and 6% (9.1 g/kg) DMSO): virtually absent in the majority of rabbits

Drug in solution evacuated after 5 min, % of the initial concentration [4]: 15% | Drug in solution evacuated after 5 min, amount [4]: 75 mg | Absorbed by the tissue, % ([4]; 5 min): 85% | Absorbed by the tissue, amount ([4]; 5 min): 425 mg | Findings around the site of delivery when sutures were opened (in vivo): a lot of dead tissues and blood clots
Structure (SMILES): CC(=O)O[C@H]1C(=O)[C@@]2(C)[C@H]([C@H](OC(=O)c3ccccc3)[C@]3(O)C[C@H](OC(=O)[C@H](O)[C@@H](NC(=O)c4ccccc4)c4ccccc4)C(C)=C1C3(C)C)[C@]1(OC(C)=O)CO[C@@H]1C[C@@H]2O [Paclitaxel]
Adverse reaction (edema) (day 7 animal): no edema was observed | Adverse reaction (edema) (day 14 animal): Same lack of reaction was observed | Adverse reaction on injected leg (edema) (t=24 h animal): severe edema
